“Also recorded” adds a separate entry of the source.
Key:
[1] = test system: U87 human glioblastoma cell line; assay: MTT assay for cytotoxicity, U87 cells; type: cell-based; conditions: for IC50: MTT, 24 h incubation
Experimental: (§1) U251 and U87 human glioblastoma cells were incubated in Dulbecco’s-modified Eagle’s medium (DMEM) (Wako Pure Chemical Industries, Osaka, Japan) supplemented with 10% fetal bovine serum (FBS) (Equitech-Bio, Kerrville, TX, USA). AsPC-1 human pancreas adenocarcinoma and Jurkat human leukemic T-cells were incubated RPMI 1640 (Wako Pure Chemical Industries), supplemented with 10% FBS. Peripheral blood mononuclear cells (PBMC) (Precision Bioservices, Frederick, MD, USA) were incubated RPMI 1640 and supplemented with 10% human serum AB (HS) (Gemini, Woodland, CA, USA). All media were supplemented with 89 µg/mL streptomycin (Meiji Seika Pharma, Tokyo, Japan) and cells were incubated at 37 °C in a humidified atmosphere of 95% air and 5% CO2. Growing cells were plated at 1 × 10^5 cells/mL into 24-well microtiter tissue culture plates (Iwaki brand Asahi Glass Co., Chiba, Japan) and incubated for 24 h before the addition of the drugs (the optimal cell number for cytotoxicity assays was determined in preliminary experiments). Stock solutions (1 mM, 5 mM, 10 mM, 20 mM, and 50 mM) of compounds and cisplatin (Sigma-Aldrich, St. Louis, MO, USA) were prepared in dimethyl sulfoxide (DMSO; Wako Pure Chemical Industries) and in dimethylformamide (DMF; Wako Pure Chemical Industries) respectively, then were added to fresh culture medium. The concentration of DMSO and DMF in the final culture medium was 1%. The level of cellular reduction of 3-(4,5-dimethylthiazol-2-yl)-2,5-diphenyltetrazolium bromide (MTT) (Dojindo Molecular Technologies, Kumamoto, Japan) was quantified as previously described in the literature with small modifications. The tested compounds were incubated with cells to give a final concentration in the range 50–500 µM for 24 h. At the end of this period, MTT was added to cells in culture to give a final concentration of 0.275 mg/mL and incubated further for 4 h at 37 °C. The medium was removed and the formazan crystals were solubilized by addition of 100 µL DMSO to each well. After the solubilized crystals were diluted (1:10) with DMSO, 100 µL was transferred to wells of 96-well microtiter plates (Iwaki brand Asahi Glass Co.) and the absorbance at 550 nm was measured using a microplate spectrophotometer Infinitive M1000 (Tecan, Groding, Austria). Every concentration was repeated in three wells and IC50 values were defined as the drug concentrations which reduced absorbance to 50 % of control values.

[2] = test system: U251 human glioblastoma cell line; assay: MTT assay for cytotoxicity, U251 cells; type: cell-based; conditions: 24 h incubation
Experimental: as §1

[3] = test system: AsPC-1 human pancreatic adenocarcinoma cell line; assay: MTT assay for cytotoxicity, AsPC-1 cells; type: cell-based; conditions: 24 h incubation, read-out: IC50 AsPC1 Cell Line
Experimental: as §1

[4] = test system: U251 cells; assay: Detection of apoptotic and necrotic cells (annexin V/ethidium homodimer III staining); type: cell-based, human
Text: U251 cells were stained and observed by fluorescence microscope (Figure 4). If the cells are colored green with annexin V, and not stained red with ethidium homodimer III, the cells are judged to be apoptotic. […] The apoptotic and necrotic effects of compound 11 were compared with cisplatin. […] Then, apoptotic/necrotic/healthy cells detection kit protocol was applied according to the manufacturer’s instruction manual (PromoKine, Heidelberg, Germany). After the cells were washed twice with 1 × binding buffer, a staining solution containing 50 µL of 1 × binding buffer, 2 µL of FTIC-Annexin V solution, 2 µL of ethidium homodimer III solution and 2 µL of Hoechst 33342 solution was added and the cells were incubated for 15 min at RT, protected from light. Cells were washed with 1 × binding buffer and analyzed by all-in-one fluorescence microscope Biorevo Fluorescence BZ-9000 (Keyence, Osaka, Japan).

[5] = test system: supercoiled pUC19 DNA; assay: DNA cleavage assay (agarose gel electrophoresis); type: biochemical; conditions: 37 °C, 1.5 h
Experimental: The DNA cleavage activities of compound 11 and cisplatin at the IC50 concentrations in water and Tris/boric acid buffer in the presence and absent of the iron complex, H2O2 and ascorbic acid as an activator were studied using supercoiled pUC19 DNA (Figure 5). The reaction mixture was incubated at 37 °C for 1.5 h and then agarose gel electrophoresis was performed at 100 V for 40 min. DNA was visualized by photographing the fluorescence of intercalated ethidium bromide under a UV illuminator. […] Thus, it is considered that DNA-cleavage was caused by oxygen activation.
The DNA cleavage activities of the compounds were studied using supercoiled pUC19 DNA and analyzed by agarose (Takara, Kyoto, Japan) gel electrophoresis Mupid-2x (Mupid, Tokyo, Japan). pUC19 DNA (2 µg) was treated with compounds in water and Tris/boric acid (Nacalai Tesque, Kyoto, Japan) buffer (10 mM, pH 8.5) in the presence and absence of iron (II) sulfate heptahydrate (FeSO4·7H2O; 30 µM) (Wako Pure Chemical Industries), hydrogen peroxide (H2O2; 30 µM) (Tokyo Chemical Industry Co., Tokyo, Japan) and ascorbic acid (30 µM) (Tokyo Chemical Industry Co.) as an activator. […] DNA was visualized by photographing the fluorescence of intercalated ethidium bromide under a UV illuminator (Nippon Genetics Co., Tokyo, Japan).

[6] = test system: AsPC-1, U87 and U251 cell lines; assay: MTT assay, overall activity on the three cell lines (in words); type: cell-based, human; conditions: 10–500 µM, all three cell lines
Experimental: (§2) U251 and U87 human glioblastoma cells were incubated in Dulbecco’s-modified Eagle’s medium (DMEM) (Wako Pure Chemical Industries, Osaka, Japan) supplemented with 10% fetal bovine serum (FBS) (Equitech-Bio, Kerrville, TX, USA). AsPC-1 human pancreas adenocarcinoma and Jurkat human leukemic T-cells were incubated RPMI 1640 (Wako Pure Chemical Industries), supplemented with 10% FBS. Peripheral blood mononuclear cells (PBMC) (Precision Bioservices, Frederick, MD, USA) were incubated RPMI 1640 and supplemented with 10% human serum AB (HS) (Gemini, Woodland, CA, USA). […] Growing cells were plated at 1 × 10^5 cells/mL into 24-well microtiter tissue culture plates (Iwaki brand Asahi Glass Co., Chiba, Japan) and incubated for 24 h before the addition of the drugs (the optimal cell number for cytotoxicity assays was determined in preliminary experiments). […] The level of cellular reduction of 3-(4,5-dimethylthiazol-2-yl)-2,5-diphenyltetrazolium bromide (MTT) (Dojindo Molecular Technologies, Kumamoto, Japan) was quantified as previously described in the literature with small modifications. […] After the solubilized crystals were diluted (1:10) with DMSO, 100 µL was transferred to wells of 96-well microtiter plates (Iwaki brand Asahi Glass Co.) and the absorbance at 550 nm was measured using a microplate spectrophotometer Infinitive M1000 (Tecan, Groding, Austria). […]

[7] = test system: Jurkat human leukemic T-cells; assay: MTT cell viability, Jurkat cells (tumor selectivity); type: cell-based
Experimental: as §2

[8] = test system: peripheral blood mononuclear cells (PBMC); assay: MTT cell viability, PBMC (tumor selectivity); type: cell-based, human; conditions: Figure 3b, read-out: IC50 against PBMC
Experimental: as §2

Compound	IC50 [1] [µM]	IC50 [2] [µM]	IC50 [3] [µM]	further results
1-[(1-(4-Hydroxyphenyl)-1H-tetrazol-5-yl)thioacetyl]-3-(2-thienyl)-5-(4-chlorophenyl)-2-pyrazoline [Compound 4]	> 500	> 500	65 ± 5.4	
1-[(5-Methyl-1,3,4-thiadiazol-2-yl)thioacetyl]-3-(2-thienyl)-5-(4-chlorophenyl)-2-pyrazoline [Compound 6]	> 500	> 500	199 ± 32.8	
N.N.[Cl][Pt][Cl] [Cisplatin, reference compound]	14.8 ± 1.4	4.9 ± 1	22.5 ± 2	apoptotic/necrotic effect ([4]; IC50 concentration, 24 h): only apoptotic effects
1-[(1-Methyl-1H-tetrazol-5-yl)thioacetyl]-3-(2-thienyl)-5-(4-chlorophenyl)-2-pyrazoline [Compound 2]	> 500	> 500	> 500	
1-[(5-(Pyridin-3-yl)-1,3,4-oxadiazol-2-yl)thioacetyl]-3-(2-thienyl)-5-(4-chlorophenyl)-2-pyrazoline [Compound 9]	> 500	> 500	108 ± 30.1	
1-[(5-(4-Chlorophenyl)-1,3,4-oxadiazol-2-yl)thioacetyl]-3-(2-thienyl)-5-(4-chlorophenyl)-2-pyrazoline [Compound 10]	251 ± 30.4			
1-[(1-Phenyl-1H-tetrazol-5-yl)thioacetyl]-3-(2-thienyl)-5-(4-chlorophenyl)-2-pyrazoline [Compound 3]	> 500	> 500	> 500	
1-[(1-(2-(Dimethylamino)ethyl)-1H-tetrazol-5-yl)thioacetyl]-3-(2-thienyl)-5-(4-chlorophenyl)-2-pyrazoline [Compound 5]	> 500	> 500	216 ± 29.7	
1-[(5-Phenyl-1,3,4-oxadiazol-2-yl)thioacetyl]-3-(2-thienyl)-5-(4-chlorophenyl)-2-pyrazoline [Compound 8]	> 500	393 ± 60.4	139 ± 26.8	
1-[(5-(4-Methoxyphenyl)-1,3,4-oxadiazol-2-yl)thioacetyl]-3-(2-thienyl)-5-(4-chlorophenyl)-2-pyrazoline [Compound 12]				cytotoxicity on U87 cell line (in words) [1]: no significant cytotoxicity
1-[(5-(4-Methylphenyl)-1,3,4-oxadiazol-2-yl)thioacetyl]-3-(2-thienyl)-5-(4-chlorophenyl)-2-pyrazoline [Compound 11]				DNA-cleaving efficiency compared with cisplatin ([5]; IC50 concentrations, iron (II) complex system): more significant than cisplatin; also recorded: much greater than cisplatin; DNA cleavage efficiency with vs without FeSO4, H2O2 and ascorbic acid ([5]; pUC19 DNA, 30 µM each activator): clearly enhanced; cytotoxic activity (in words) [6]: good activity; IC50 ([7]; MTT, Figure 3b, read-out: IC50 against Jurkat human leukemic T-cells): 90 µM; tumor selectivity in blood cells (PBMC vs Jurkat) ([7]; ratio of IC50 PBMC to IC50 Jurkat): more than 10 times; IC50 [8]: ~1000 µM; apoptotic/necrotic effect ([4]; IC50 (11.9 µM, high concentration), 3 h): mainly induced necrosis; apoptotic/necrotic effect ([4]; IC50 concentration, 24 h): late stage apoptotic or necrotic effect; apoptotic/necrotic effect ([4]; low concentration (1.5 µM), 3 h): exhibited apoptotic phenotype; also recorded: induced apoptosis; also recorded: showed apoptotic activity
1-[(Pyrimidin-2-yl)thioacetyl]-3-(2-thienyl)-5-(4-chlorophenyl)-2-pyrazoline [Compound 7]	> 500	> 500	236 ± 36.4	

Source: publication PMC6332424, “Synthesis and Evaluation of New Pyrazoline Derivatives as Potential Anticancer Agents” (Molecules, 2015)
